Source: US11840543B2, “Compounds and uses” (The University of Queensland, priority 2017, dated 2023)

Experiments:
NLRP3 [1] = biological target: T1, NLRP3 (Mus musculus, UniProt Q8R4B8); assay: NLRP3 inflammasome assay: IL-1β secretion from LPS-primed, ATP-stimulated murine BMDM (Table 1); assay type: cell-based, murine (C57BL/6 mice); settings: ATP 2.5 mM 1 h, ELISA, read-out: IC50 (NLRP3 inhibitory activity)
T1 construct: Macrophages from C57BL/6 mice were differentiated from bone marrow; endogenous in cells; host or cells: primary bone marrow-derived macrophages (BMDM) from C57BL/6 mice
Protocol: The NLRP3-inhibitory effect of a number of the above compounds was tested by measuring the IL-1β secretion from murine bone marrow derived macrophages (BMDM) primed with lipopolysaccharide (LPS), treated with test compound (to a maximum concentration of 200 μM) and finally stimulated with the NLRP3 stimulus ATP. The half-maximal inhibitory concentration (IC50) was determined for each compound and compared to a number of comparative examples (CE 1-10) including commercially available oral sulphonylureas (CE1-6) and the known NLRP3 inhibitor MCC 950 (CE7). The experimental protocol was as follows.
The University of Queensland Animal Ethics Committee approved all experimental protocols involving mice.
NLRP3 INFLAMMASOME ASSAY: BMDM were seeded at 1×10^6 cells/mL in 96 well plates. The following day the overnight medium was replaced with Opti-MEM® reduced serum medium (Life Technologies) and cells were stimulated with 100 ng/mL ultrapure E. coli K12 LPS (Invivogen) for 3 h. Compounds were prepared from a 10 mM stock by serial dilution in 80% DMSO/20% 10 mM ammonium bicarbonate. […] IL-1β levels in cell-free supernatants were analysed by ELISA (ReadySetGo!® eBioscience).

NLRP3 [2] = biological target: T2, NLRP3 (Homo sapiens, UniProt Q96P20); assay: HMDM NLRP3 inflammasome assay, IL-1β secretion (Table 2); assay type: cell-based; settings: human monocyte derived macrophages
T2 construct: To generate HMDM, human monocytes are isolated from buffy coat blood; endogenous in cells; host or cells: human monocyte-derived macrophages (HMDM) from CD14+ buffy coat monocytes

MIN6 cells = assay: MIN6 insulin assay (insulin secretion, radioimmunoassay); assay type: cell-based; settings: 10 μM test compound, 2.8 mM glucose KRB, 1 h; FIG. 1
Protocol: To confirm the insulinotropic properties of the compounds of the invention, their ability to stimulate insulin secretion from MIN6 cells at a single concentration (10 μM) was tested using the following protocol. The tests were conducted by the Garvan Institute of Medical Research, Sydney, Australia.
MIN6 INSULIN ASSAY PROTOCOL: MIN6 cells (passage 29-37) were incubated for 1 h in Krebs-Ringer buffer (KRB) containing 2.8 mM glucose. The cells were then stimulated for 1 h in either 2.8 mM glucose KRB, 20 mM glucose KRB, or 2.8 mM glucose KRB plus test compound. Supernatants were collected and then assayed using rat insulin radioimmunoassay kit (RI-13K, Merck Millipore).

T1 sequence (Q8R4B8 whole entry): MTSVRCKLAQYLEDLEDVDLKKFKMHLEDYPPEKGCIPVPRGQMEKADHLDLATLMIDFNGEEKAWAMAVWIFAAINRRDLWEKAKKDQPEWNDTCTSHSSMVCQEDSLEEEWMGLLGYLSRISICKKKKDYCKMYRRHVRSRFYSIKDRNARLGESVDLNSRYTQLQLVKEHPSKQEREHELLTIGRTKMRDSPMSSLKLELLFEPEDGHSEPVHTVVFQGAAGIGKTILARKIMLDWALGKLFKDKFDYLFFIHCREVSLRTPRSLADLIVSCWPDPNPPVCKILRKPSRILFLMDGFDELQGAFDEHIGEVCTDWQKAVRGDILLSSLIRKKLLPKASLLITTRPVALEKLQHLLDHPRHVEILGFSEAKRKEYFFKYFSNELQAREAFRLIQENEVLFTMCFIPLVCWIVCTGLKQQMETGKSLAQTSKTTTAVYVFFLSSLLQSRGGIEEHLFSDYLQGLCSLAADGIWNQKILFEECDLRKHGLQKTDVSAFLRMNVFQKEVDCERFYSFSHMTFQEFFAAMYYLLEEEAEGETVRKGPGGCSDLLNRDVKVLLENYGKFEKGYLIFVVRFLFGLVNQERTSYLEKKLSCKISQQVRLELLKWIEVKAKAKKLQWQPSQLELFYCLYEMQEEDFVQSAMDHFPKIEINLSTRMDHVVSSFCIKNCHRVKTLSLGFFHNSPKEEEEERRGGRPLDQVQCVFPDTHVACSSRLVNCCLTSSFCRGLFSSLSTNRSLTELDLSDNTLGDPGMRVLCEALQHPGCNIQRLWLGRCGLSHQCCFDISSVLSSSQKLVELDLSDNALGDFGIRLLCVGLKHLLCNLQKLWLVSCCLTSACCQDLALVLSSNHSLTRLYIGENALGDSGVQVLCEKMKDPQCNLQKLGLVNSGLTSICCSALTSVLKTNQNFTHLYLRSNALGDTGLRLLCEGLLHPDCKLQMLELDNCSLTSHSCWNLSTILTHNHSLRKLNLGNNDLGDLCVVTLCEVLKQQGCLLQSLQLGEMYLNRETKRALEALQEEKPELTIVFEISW
T2 sequence (Q96P20 whole entry): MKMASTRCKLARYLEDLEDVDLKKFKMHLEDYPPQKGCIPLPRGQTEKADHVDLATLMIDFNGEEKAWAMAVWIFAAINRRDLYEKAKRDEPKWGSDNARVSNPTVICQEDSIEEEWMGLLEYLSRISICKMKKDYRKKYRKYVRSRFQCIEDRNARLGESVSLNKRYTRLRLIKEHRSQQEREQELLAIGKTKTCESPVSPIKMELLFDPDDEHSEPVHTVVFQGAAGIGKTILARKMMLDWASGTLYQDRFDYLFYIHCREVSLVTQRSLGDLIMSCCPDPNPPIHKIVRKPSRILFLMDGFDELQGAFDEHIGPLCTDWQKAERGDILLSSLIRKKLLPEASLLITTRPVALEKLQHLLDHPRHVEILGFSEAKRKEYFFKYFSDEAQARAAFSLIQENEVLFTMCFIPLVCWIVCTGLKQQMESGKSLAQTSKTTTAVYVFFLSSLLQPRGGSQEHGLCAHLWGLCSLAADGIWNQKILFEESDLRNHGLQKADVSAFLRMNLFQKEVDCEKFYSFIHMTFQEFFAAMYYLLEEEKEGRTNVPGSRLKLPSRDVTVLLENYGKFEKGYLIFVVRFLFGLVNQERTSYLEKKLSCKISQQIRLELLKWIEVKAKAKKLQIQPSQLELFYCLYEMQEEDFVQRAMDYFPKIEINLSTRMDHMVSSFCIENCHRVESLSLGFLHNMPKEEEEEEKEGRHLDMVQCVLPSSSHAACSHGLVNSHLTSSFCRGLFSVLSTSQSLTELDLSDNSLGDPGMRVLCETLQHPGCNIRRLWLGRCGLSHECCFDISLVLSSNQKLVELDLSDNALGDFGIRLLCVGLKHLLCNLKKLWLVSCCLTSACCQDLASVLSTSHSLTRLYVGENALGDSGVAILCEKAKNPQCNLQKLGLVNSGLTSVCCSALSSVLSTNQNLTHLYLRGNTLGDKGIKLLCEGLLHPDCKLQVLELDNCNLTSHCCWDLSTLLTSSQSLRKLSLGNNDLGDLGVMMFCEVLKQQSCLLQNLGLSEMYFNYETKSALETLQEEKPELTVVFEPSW

IC50 (NLRP3 [1]) [µM]	Compound	further results
> 50	COc1ccc2c(c1)C(=O)N(CCc1ccc(S(=O)(=O)NC(=O)NC3CCCCC3)cc1)C(=O)C2(C)C [CE5, Gliquidone]	–
–	C#CCNC(=O)CCc1ccc(S(=O)(=O)NC(=O)Nc2c3c(cc4c2CCC4)CCC3)cc1 [Example 13, 3-(4-(N-((1,2,3,5,6,7-Hexahydro-s-indacen-4-yl)carbamoyl)sulfamoyl)-phenyl)-N-(prop-2-yn-1-yl)propanamide]	IC50 (NLRP3 [2]): < 1 µM
< 1	Nc1ccc(S(=O)(=O)NC(=O)Nc2c3c(cc4c2CCC4)CCC3)cc1 [CE8]	–
< 1	CC(=O)c1ccc(S(=O)(=O)NC(=O)Nc2c3c(cc4c2CCC4)CCC3)cc1 [Example 1, 4-Acetyl-N-((1,2,3,5,6,7-hexahydro-s-indacen-4-yl)carbamoyl) benzenesulfonamide]	–
> 50	Cc1cc(C(=O)NCCc2ccc(S(=O)(=O)NC(=O)NN3CCCCCC3)cc2)no1 [CE4, Glisoxepide]	–
–	CC(C)(O)c1coc(S(=O)(=O)NC(=O)Nc2c3c(cc4c2CCC4)CCC3)c1 [CE7, MCC 950]	insulin secretion from MIN6 cells (MIN6 cells): basal levels of insulin secretion
< 1	O=C(Nc1c2c(cc3c1CCC3)CCC2)NS(=O)(=O)c1ccc([N+](=O)[O-])cc1 [CE10]	–
< 1	Cc1cnc(C(=O)NCCc2ccc(S(=O)(=O)NC(=O)Nc3c4c(cc5c3CCC5)CCC4)cc2)cn1 [Example 3, N-(4-(N-((1,2,3,5,6,7-Hexahydro-s-indacen-4-yl)carbamoyl)sulfamoyl)phenethyl)-5-methylpyrazine-2-carboxamide]	–
> 200	Cc1cnc(C(=O)NCCc2ccc(S(=O)(=O)NC(=O)NC3CCCCC3)cc2)cn1 [CE3, Glipizide]	–
< 1	O=C(Nc1c2c(cc3c1CCC3)CCC2)NS(=O)(=O)c1ccc2c(c1)CCC2 [CE9]	–
> 50	CCC1=C(C)CN(C(=O)NCCc2ccc(S(=O)(=O)NC(=O)N[C@H]3CC[C@H](C)CC3)cc2)C1=O [CE6, Glimepiride]	–
> 200	CC(=O)c1ccc(S(=O)(=O)NC(=O)NC2CCCCC2)cc1 [CE1, Acetohexamide]	–
–	O=C(Nc1c2c(cc3c1CCC3)CCC2)NS(=O)(=O)c1cccc(C(=O)O)c1 [Example 10, 3-(N-((1,2,3,5,6,7-Hexahydro-s-indacen-4-yl)carbamoyl)sulfamoyl)-benzoic acid]	IC50 (NLRP3 [2]): < 1 µM
